These results are taken from patent US5648368A, “Fibrinogen receptor antagonists” (Merck & Co., Inc., priority 1995, dated 1997).

Like-named read-outs stand apart in the source and are kept apart here.

Experiment [1] has as its system gel-filtered human platelets. In words: ADP-stimulated/ADP-mediated platelet aggregation inhibition (Chronolog aggregometer). It is filed as cell-based. The method, then: Platelet aggregation is measured at 37° C. in a Chronolog aggregometer. The reaction mixture contains gel-filtered human platelets (2×10^8 per ml), fibrinogen (100 micrograms per ml (ug/ml)), Ca^2 + (1 mM), and the compound to be tested. The aggregation is initiated by adding 10 μM ADP 1 minute after the other components are added. The reaction is then allowed to proceed for at least 2 minutes. The extent of inhibition of aggregation is expressed as the percentage of the rate of aggregation observed in the absence of inhibitor. The IC50 is the dose of a particular compound inhibiting aggregation by 50% relative to a control lacking the compound.
In addition to the following preparative procedures, several examples of in-vitro bioactivity of compounds within the scope of the present invention are indicated. To illustrate, one test which is used to evaluate fibrinogen receptor antagonist activity is based on evaluation of inhibition of ADP-stimulated platelets. Aggregation requires that fibrinogen bind to and occupy the platelet fibrinogen receptor site. Inhibitors of fibrinogen binding inhibit aggregation. In the ADP-stimulated platelet aggregation assay used to determine inhibition associated with the compounds claimed in the instant invention, human platelets are isolated from fresh blood, collected into acid citrate/dextrose by differential centrifugation followed by gel filtration on Sepharose 2B in divalent ion-free Tyrode's buffer (pH 7.4) containing 2% bovine serum albumin. [drawing 11]

Experiment [2] concerns cell attachment-promoting effects of fibronectin and vitronectin. The conditions noted are these: background statement; cited from earlier work.
In another experiment the test system is gpIIb/IIIa complex. The conditions noted are these: snake venom polypeptides; literature; cited from earlier work.
Setting [3] is: Homo sapiens, Platelet, table 2, "Using the methods previously described", read-out: IC50 (μM) Inhibition of Platelet Aggregation.
[4] abbreviates: Platelet, gel-filtered human platelets 2×10^8 per ml, fibrinogen 100 ug/ml, Ca2+ 1 mM, 10 μM ADP, 37° C., table 1, read-out: IC50 for inhibition of ADP-mediated platelet aggregation.
[5] abbreviates: gel-filtered human platelets 2×10^8 per ml, fibrinogen 100 ug/ml, Ca2+ 1 mM, 10 μM ADP, 37° C., table 1, read-out: IC50 for inhibition of ADP-mediated platelet aggregation.

A word on the IC50: it is the concentration needed to halve the response being measured. Take `O=C(NC[C@H](NS(=O)(=O)c1ccccc1)C(=O)O)c1ccc(NCCC2CCNCC2)cc1`: in experiment [1] (setting [3]), the IC50 was 0.009 µM.

As for `O=C(O)CCNC(=O)Cc1cccc(OCC2CCNCC2)c1` [3-[(4-Piperidinyl)methyloxy]-N-(2-carboxyethyl)phenyl Acetamide], in experiment [1] (setting [4]), the IC50 was 56 µM.

As for `CCCCS(=O)(=O)N[C@@H](Cc1ccc(NC(=O)CCCC2CCNCC2)cc1)C(=O)O` [4-(4-Piperidin-4-yl)-N-3[2(S)-n-butylsulfonylaminopropionic acid]-phenylbutyramide], in experiment [1] (setting [5]), the IC50 amounted to 0.095 µM.

As for `O=C(NC[C@H](NS(=O)(=O)c1cccnc1)C(=O)O)c1ccc(OCCC2CCNCC2)cc1`, in experiment [1] (setting [3]), the IC50 amounted to 0.009 µM.

Turning to `Cc1ccc(C(=O)NCCC2CCNCC2)cc1C(=O)NCCC(=O)O`, in experiment [1] (setting [3]), the IC50 worked out at 0.45 µM.

As for `O=C(O)CCNC(=O)c1ccnc(C(=O)NCCC2CCNCC2)c1`, the IC50 in experiment [1] (setting [3]) amounted to 1.6 µM.

For the compound `CCCCS(=O)(=O)N[C@@H](CNC(=O)CCc1ccc(C2CCNCC2)cc1)C(=O)O` [4-(Piperidin-4-yl)phenyl-3-propionyl-[2(S)-n-butyl-sulfonylamino]-β-alanine], the IC50 in experiment [1] (setting [4]) was determined as 0.1 µM.

As to `O=C(O)CC(CCc1c[nH]c2ccccc12)NC(=O)Cc1cccc(OCC2CCNCC2)c1` (centres unmarked) [3-[(4-Piperidinyl)methyloxy]-N-[3-(2-indol-3-yl)ethyl Propionic Acid]-phenyl Acetamide], in experiment [1] (setting [5]), the IC50 was 5.2 µM.

Take `O=C(NCCCC1CCNCC1)c1ccc(C(=O)NC[C@H](NS(=O)(=O)c2cccnc2)C(=O)O)cc1`: the 50% inhibitory concentration (IC50) in experiment [1] (setting [3]) came to 0.052 µM.

In the case of `O=C(NC[C@H](NS(=O)(=O)c1ccccc1)C(=O)O)c1ccc(OCCN2CCNCC2)cc1`, in experiment [1] (setting [3]), the IC50 was determined as 0.023 µM.

For the compound `CC(CC(=O)NCCC(=O)O)c1ccc(C2=CCNCC2)cc1` (stereo not drawn) [3-[4-(1,2,5,6-Tetrahydropyridin-4-yl)phenyl]butyryl-β-alanine], the IC50 in experiment [1] (setting [4]) came to 1.3 µM.

Take `CCCCS(=O)(=O)N[C@@H](CNC(=O)c1cc(C(=O)NCCC2CCNCC2)ccc1C)C(=O)O`: the IC50 in experiment [1] (setting [3]) is 0.15 µM.

Turning to `O=C(NC[C@H](NS(=O)(=O)c1ccccc1)C(=O)O)c1ccc(OCCCC2CNC2)cc1`, in experiment [1] (setting [3]), the IC50 was found to be 0.01 µM.

As to `CCCCS(=O)(=O)N[C@@H](CNC(=O)c1cccc(C(=O)N(C)CCC2CCNCC2)c1)C(=O)O`, the IC50 in experiment [1] (setting [3]) turned out to be 0.023 µM.

`O=C(NC[C@H](NS(=O)(=O)c1ccccc1)C(=O)O)c1ccc(S(=O)(=O)CCC2CCNCC2)cc1`: the IC50 in experiment [1] (setting [3]) turned out to be 0.019 µM.

With `CCCCS(=O)(=O)N[C@@H](CNC(=O)c1ccc(C(=O)NCC2CCNCC2)cc1)C(=O)O`, the IC50 in experiment [1] (setting [3]) was 0.14 µM.

As for “arginine-glycine-aspartic acid [Arg-Gly-Asp]”, the “activity of the tripeptide Arg-Gly-Asp” value in experiment [2] is recorded as “low activity”.

Turning to `CCCCS(=O)(=O)N[C@@H](CNC(=O)CCc1ccc(C2=CCNCC2)cc1)C(=O)O` [4-(1,2,5,6-Tetrahydropyridin-4-yl)phenyl-3-propionyl-[2(S)-n-butylsulfonylamino]-β-alanine], the IC50 in experiment [1] (setting [4]) worked out at 0.022 µM.

As for `O=C(NCCC1CCNCC1)c1ccc(C(=O)NC[C@H](NS(=O)(=O)c2cccnc2)C(=O)O)cc1`, the IC50 in experiment [1] (setting [3]) turned out to be 0.017 µM.

On to `O=C(NC[C@H](NS(=O)(=O)c1ccccc1)C(=O)O)c1ccc(OCCC2CCNCC2)cc1` [4-[2-(Piperidin-4-yl)ethoxy]benzoyl-2(S)-phenylsulfonylamino-β-alanine], for which the IC50 in experiment [1] (setting [4]) worked out at 0.014 µM.

For `O=C(O)CCNC(=O)c1cc(C(=O)NCCC2CCNCC2)ccn1`, the IC50 in experiment [1] (setting [3]) turned out to be 1.1 µM.

As for Echistatin, the “affinity for the gpIIb/IIIa complex” value with gpIIb/IIIa complex is listed as “high affinity”.

For `CCCCS(=O)(=O)N[C@@H](CNC(=O)c1cncc(C(=O)NCCC2CCNCC2)c1)C(=O)O`, the IC50 in experiment [1] (setting [3]) was 0.11 µM.

`O=C(O)CCNC(=O)CCc1ccc(C2=CCNCC2)cc1` [4-(1,2,5,6-Tetrahydropyridin-4-yl)phenyl-3-propionyl-β-alanine]: the IC50 in experiment [1] (setting [4]) was determined as 1.7 µM.

`O=C(O)CCNC(=O)CCc1ccc(C2CCNCC2)cc1` [4-(Piperidin-4-yl)phenyl-3-propionyl-β-alanine]: the IC50 in experiment [1] (setting [4]) was 11 µM.

Regarding `O=C(NC[C@H](NS(=O)(=O)c1ccccc1)C(=O)O)c1cccc(OCCCC2CCNCC2)c1`, the IC50 in experiment [1] (setting [3]) came to 0.056 µM.

Turning to `O=C(NC[C@H](NS(=O)(=O)c1ccccc1)C(=O)O)c1ccc(OCCC2CNC2)cc1`, in experiment [1] (setting [3]), the IC50 was found to be 0.017 µM.

For the compound `O=C(O)CCNC(=O)CCc1cccc(CC2CCNCC2)c1` [3-[3-(Piperidin-4-ylmethyl)phenyl]propionyl-β-alanine], the IC50 in experiment [1] (setting [4]) is 170 µM.

Regarding `CCCCS(=O)(=O)N[C@@H](CNC(=O)c1ccc(C(=O)NCCC2CCNCC2)cc1)C(=O)O`, the IC50 in experiment [1] (setting [3]) worked out at 0.02 µM.
